Results published in patent US4738954A, “Novel N^6 -substituted-5'-oxidized adenosine analogs” (Warner-Lambert Company, priority 1985, dated 1988).

Columns and labels:
locomotor activity = test: Activity and Screen Test done orally in rats: locomotor activity; format: in vivo
Method: Immediately following the screen test, the final phase of testing is initiated by placing each group of three mice in one actophotometer (Life Sciences, 22, 1067-1076, 1978). The actophotometer consists of a cylindrical chamber whose center is occupied by another cylinder which contains the illumination for six photocells located on the perimeter of the chamber. Six light-beam interruptions equal one count. Locomotor activity is recorded by computer at ten minute intervals for 60 minutes.
(§1) The data obtained from the screen test are expressed as percent of mice falling off the screen. Data derived from locomotor activity of drug treated mice are compared to the activity of vehicle treated animals and are expressed as percent inhibition of spontaneous locomotion. All percentages reported for inhibition of locomotion (LI) are based upon data accumulated for one hour. Both phases of testing are graded: A=60-100%; C=31-59%; and N=0-30%. An overall dose rating is obtained by the following criteria:
(§2) *This was done orally in rats, rather than IP in mice.

[1] = system: animals falling off the inverted screen; test: Activity and Screen Test done orally in rats: screen test; format: in vivo
Method: A two part testing procedure is started one hour postinjection. First, the screen test (ST) is performed (see Pharmac. Biochem. Behav. 6, 351-353, 1977). Briefly this test consists of placing mice on individual wire screens which are then rotated 180 degrees at the start of a 60 second observation period. The number of mice falling off the inverted screen is recorded.
as §1, §2

adenosine A1 receptor = target: T1, adenosine A1 receptor (Rattus norvegicus, UniProt P25099); test: Adenosine Receptor Binding--A1 Receptor Affinity (RBA1), [3H]-CHA displacement; settings: 1.0 nM [3H]-CHA, rat brain, 25° C, 1 h; read-out: RBA-1 (IC50, A1 receptor affinity)
T1 construct: Whole brain minus cerebellum and brainstem from male Long Evans rats; from tissue; host or cells: rat whole brain minus cerebellum and brainstem, membranes
T1 sequence (P25099 1-326): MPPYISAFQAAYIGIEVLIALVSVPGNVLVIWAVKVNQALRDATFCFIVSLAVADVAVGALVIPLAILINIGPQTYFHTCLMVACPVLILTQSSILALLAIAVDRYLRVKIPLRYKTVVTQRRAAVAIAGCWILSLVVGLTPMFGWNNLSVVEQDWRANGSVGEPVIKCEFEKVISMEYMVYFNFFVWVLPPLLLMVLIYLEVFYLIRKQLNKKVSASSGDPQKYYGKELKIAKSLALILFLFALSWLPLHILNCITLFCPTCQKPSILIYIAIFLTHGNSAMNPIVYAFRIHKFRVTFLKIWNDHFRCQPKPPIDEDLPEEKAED
Method: Adenosine Receptor Binding--A1 Receptor Affinity (RBA1)
Whole brain minus cerebellum and brainstem from male Long Evans rats (105-200 g) was homogenized in 30 volumes of ice-cold 0.05M Tris-HCl buffer pH 7.7 using a Brinkman Polytron PT-10, (setting number 6 for 20 seconds) and centrifuged for ten minutes at 20,000×g (Sorvall RC-2), 4° C. The supernatant was discarded, and the pellet was resuspended and centrifuged as before. The pellet was resuspended in 20 ml Tris-HCl buffer containing two International Units/ml of adenosine deaminase (Sigma type III from calf intestinal mucosa), incubated at 37° C. for 30 minutes, then subsequently at 0° C. for ten minutes. The homogenate was again centrifuged, and the final pellet was resuspended in ice-cold 0.05M Tris-HCl buffer pH 7.7 to a concentration of 20 mg/ml original wet tissue weight and used immediately.
Tissue homogenate (10 mg/ml) was incubated in 0.05M Tris-HCl buffer pH 7.7 containing 1.0 nM ((^3 H))-N^6 -cyclohexyladenosine ([^3 H]-CHA) with or without test agents in triplicate for one hour at 25° C. Incubation volume was 2 ml. Unbound [^3 H]-CHA was separated by rapid filtration under reduced pressure through Whatman glass fiber (GF/B) filters. The filters were rinsed three times with 5 ml of ice cold 0.05M Tris-HCl buffer pH 7.7. The radio-labeled ligand retained on the filter was measured by liquid scintillation spectrophotometry after shaking the filters for one hour or longer on a mechanical shaker in 10 ml of Beckman Ready-Solv HP scintillation cocktail.
Nonspecific binding was defined as the binding which occured in the presence of 1 mM theophylline. The concentration of test agent which inhibited 50% of the specific binding (IC50) was determined by nonlinear computer curve fit. The Scatchard plot was calculated by linear regression of the line obtained by plotting the amount of radioligand bound (pmoles/gram of tissue) versus [formula] Since the amount of radioligand bound was a small fraction of the total amount added, free radioligand was defined as the concentration of (nM) of radioligand added to the incubation mixture. The Hill coefficient was calculated by linear regression of the line obtained by plotting the log of the bound radioligand vs the log of the [formula] The maximal number of binding sites (Bmax) was calculated from the Scatchard plot.

adenosine A2 receptor = target: T2, adenosine A2 receptor (Rattus norvegicus, UniProt P30543); test: Adenosine Receptor Binding--A2 Receptor Affinity (RBA2), [3H]NECA displacement; format: rat (Sprague-Dawley striatal membranes); settings: 4 nM [3H]NECA + 50 nM N6-cyclopentyladenosine, rat striatum, 25° C, 60 min; read-out: RBA-2 (IC50, A2 receptor affinity)
T2 construct: Brains were thawed and then kept on ice while the striata were dissected out; tissue Pel-Freez (Rogers, Arkansas) (rat brains); host or cells: rat striatum, membranes
T2 sequence (P30543 whole entry): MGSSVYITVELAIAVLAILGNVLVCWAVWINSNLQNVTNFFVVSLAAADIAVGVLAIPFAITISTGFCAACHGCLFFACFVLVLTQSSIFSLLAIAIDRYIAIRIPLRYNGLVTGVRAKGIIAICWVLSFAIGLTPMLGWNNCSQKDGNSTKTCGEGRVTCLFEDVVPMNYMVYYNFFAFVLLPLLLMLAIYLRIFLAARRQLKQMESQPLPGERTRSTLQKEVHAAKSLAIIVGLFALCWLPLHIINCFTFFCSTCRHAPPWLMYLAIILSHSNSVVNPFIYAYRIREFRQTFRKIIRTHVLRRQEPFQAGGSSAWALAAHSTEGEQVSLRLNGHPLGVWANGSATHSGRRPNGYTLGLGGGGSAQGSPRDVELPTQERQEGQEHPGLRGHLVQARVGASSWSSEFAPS
Method: Adenosine Receptor Binding--A2 Receptor Affinity (RBA2)
Brains from 200-500 g mixed sex Sprague-Dawley rats were purchased from Pel-Freez (Rogers, Arkansas). Fresh brains from male Long-Evans hooded rats (Blue Spruce Farms, Altamont, NY) gave essentially identical results. Brains were thawed and then kept on ice while the striata were dissected out. Striata were disrupted in 10 vol of ice-cold 50 mM Tris.HCl (pH 7.7 at 25° C., pH 8.26 at 5° C.) (Tris) for 30 seconds in a Polytron PT-10 (Brinkmann) at setting 5. The suspension was centrifuged at 50,000×g for ten minutes, the supernatant discarded, the pellet resuspended in 10 vol ice-cold Tris as above, recentrifuged, resuspended at 1 g/5 ml, and stored in plastic vials at -70° C. (stable for at least six months). When needed, tissue was thawed at room temperature, disrupted in a Polytron, and kept on ice until used.
All incubations were for 60 minutes at 25° C. in 12×75 mm glass tubes containing 1 ml Tris with 5 mg original tissue weight of rat weight of rat striatal membranes, 4 nM [^3 H]-N-ethyl adenosine-5'-carboxamide ([^3 H]NECA), 50 nM N^6 -cyclopentyladenosine (to eliminate A1 receptor binding), 10 mM MgCl2, 0.1 units/ml of adenosine deaminase and 1% dimethylsulfoxide. N^6 -Cyclopentyladenosine was dissolved at 10 mM in 0.02N HCl and diluted in Tris. Stock solutions and dilutions of N^6 -cyclopentyladenosine could be stored at -20° C. for several months. Test compounds were dissolved at 10 mM in dimethylsulfoxide on the same day as the experiment, and diluted in dimethylsulfoxide to 100× the final incubation concentration. Control incubations received an equal volume (10 μl) of dimethylsulfoxide; the resulting concentration of dimethylsulfoxide had no effect on binding. [^3 H]NECA was diluted to 40 nM in Tris. The membrane suspension (5 mg/0.79 ml) contained sufficient MgCl2 and adenosine deaminase to give 10 mM and 0.1 units/ml, respectively, final concentration in the incubation. […] After all additions, the rack of tubes was vortexed, and the tubes were then incubated for 60 min at 25° C. in a shaking water bath. The rack of tubes was vortexed an additional time halfway through the incubation.
Incubations were terminated by filtration through 2.4 cm GF/B filters under reduced pressure. Each tube was filtered as follows: the contents of the tube were poured on the filter, 4 ml of ice-cold Tris were added to the tube and the contents poured onto the filter, and the filter was washed twice with 4 ml of ice-cold Tris. The filtration was complete in about twelve seconds. Filters were put in scintillation vials, 8 ml of Formula 947 scintillation fluid added, and the vials left overnight, shaken, and counted in a liquid scintillation counter at 40% efficiency.
Nonspecific binding was defined as binding in the presence of 100 μM N^6 -cyclopentyladenosine, and specific binding was defined as total binding minus nonspecific binding. The IC50 was calculated by weighted nonlinear least squares curve-fitting to the mass-action equation. [formula] where Y is cpm bound
T is cpm total binding without drug
S is cpm specific binding without drug
D is the concentration of drug and
K is the IC50 of the drug
Weighting factors were calculated under the assumption that the standard deviation was proportional to the predicted value of Y. Nonspecific binding was treated as a very large (infinite) concentration of drug in the computer analysis.

Structure (SMILES)	Inhibition of locomotor activity (locomotor activity; 0.1 mg/kg orally)	Inhibition of locomotor activity (locomotor activity; 0.3 mg/kg orally)	Inhibition of locomotor activity (locomotor activity; 1 mg/kg orally)	Screen test failure ([1]; 0.1 mg/kg orally)	Screen test failure ([1]; 0.3 mg/kg orally)	Screen test failure ([1]; 1 mg/kg orally)	IC50 (adenosine A1 receptor)	IC50 (adenosine A2 receptor)	Inhibition of locomotor activity (locomotor activity; 3 mg/kg orally)	Inhibition of locomotor activity (locomotor activity; 10 mg/kg orally)	Screen test failure ([1]; 3 mg/kg orally)	Screen test failure ([1]; 10 mg/kg orally)
CCNC(=O)[C@H]1O[C@@H](n2cnc3c(NC4CC5CCC4C5)ncnc32)[C@H](O)[C@@H]1O (relative stereo) [Example 9, N-6-Norbornyladenosine-5'ethylcarboxamide]	37%	69%	89%	33%	11%	44%						
CCNC(=O)[C@H]1O[C@@H](n2cnc3c(NC4CCCC4)ncnc32)[C@H](O)[C@@H]1O [Example 4, N6-cyclopentyladenosine-5'-ethylcarboxamide]	33%	36%	81%	22%	6%	17%	0.9 nM	198 nM	84%	84%	22%	72%
CCNC(=O)[C@H]1O[C@@H](n2cnc3c(N[C@@H]4CCc5ccccc54)ncnc32)[C@H](O)[C@@H]1O [Example 2, (R)-N-6-(1-indanyl) adenosine-5'-ethylcarboxamide]							29 nM	161 nM				
CCOC(=O)[C@H]1O[C@@H](n2cnc3c(N[C@H](C)Cc4ccccc4)ncnc32)[C@H](O)[C@@H]1O [Example 7, (R)-N-6-[(2-Phenyl-1-methyl)ethyl]-adenosine-5'-ethylcarboxylate]							16 nM	2680 nM				
